Our source for the IC50 values is patent US10407414B2, “Mannose derivatives for treating bacterial infections” (priority 2015, dated 2019).

For orientation: IC50 means the concentration that gives 50% inhibition.

This assay deals with bacterial strain LF82 binding to the glycoprotein BSA-(Mannose)3 (FimH antagonists). In words: Bacterial Binding Assay (BBA). Format: cell-based, Escherichia coli. The following applies: read-out: Bacterial Binding Assay IC50 ± SEM. The source says:
The purpose of the Bacterial Binding Assay (BBA) is to determine the inhibition activity of selective FimH antagonists on the bacterial strain LF82 binding to the glycoprotein BSA-(Mannose)3.
Below is a list of the Materials used to run the BBA are described below. • 1. LB broth: Supplier: Gibco, #10855 • 2. D-PBS: Supplier: Wisent, #311-425-CL • 3. LB agar plates • 4. 96-well black plate (high binding): Supplier: Costar, #3925 • 5. TopSeal™-A adhesive sealing films; Supplier PerkinElmer, #6005185 • 6. Carbonate-bicarbonate buffer pH 9.6 tablets, Supplier: Medicago, #09-8922-24 • 7. Water, Supplier: Gibco, #15230-162 • 8. Bovine serum albumin (BSA): Supplier: Sigma, #A-7888 • 9. (Man)3-BSA (α1-3, α1-6 Mannotriose-BSA, 1 mg), V-Labs, #NGP1336, lot# HGDX37-169-1 • 10. Tween 20: Supplier: Sigma, #P9416 • 11. Bright-Glo Luciferase Assay System: Supplier: Promega, #E2610 • 12. LF82/Luciferase strain: Invasive ability of an Escherichia coli strain isolated from the ileal mucosa of a patient with Crohn's disease. Boudeau J, Glasser A L, Masseret E, Joly B, Darfeuille-Michaud A, Infect Immun. 1999, 67(9), 4499-509
Solutions and buffers used to run the BBA are described below. • 1. 0.04M carbonate-bicarbonate buffer (coating buffer) • 2. 40 μg/mL BSA-(Man)3: Dissolve 1 mg of (Man)3-BSA in 25 mL of water. • 3. 4000 μg/mL BSA • 4. 40 μg/mL BSA • 5. 1 μg/mL BSA-(Man)3: 150 μL of 40 μg/mL BSA-(Man)3+5.85 mL of 40 μg/mL BSA • 6. 0.5 μg/mL BSA-(Man)3 in 0.02M carbonate-bicarbonate buffer. • 7. 20 μg/mL BSA in 0.02M carbonate-bicarbonate buffer • 8. Blocking buffer (2% BSA/DPBS): 1 g of BSA in 50 mL D-PBS • 9. 2× binding buffer (0.2% BSA/D-PBS): 5 mL of blocking buffer+45 mL D-PBS. • 10. Washing buffer (D-PBS/0.01% Tween 20): 10 μL of Tween 20 in 100 mL D-PBS. • 11. 1× Bright-Glo Luciferase substrate: Dilute 1:1 the Bright-Glo Luciferase Assay System with D-PBS
The experimental protocol used in this example to run the BBA is described below.
Overnight culture of LF82/Luciferase strain: Into two Falcon 50 mL tubes, add 20 mL of LB+20 μL of 50 mg/mL Kanamycin and inoculate with a loop from glycerol stock of the LF82/Luciferase strain. Incubate overnight at 37° C. with no shaking.
Glycoprotein coating of 96-well plates: Add 100 μL/well of 0.5-2 μg/mL BSA-(Man)3. 20 μg/mL BSA is used as the control background. Seal plate using an adhesive sealing film and incubate overnight at room temperature. Wash the 96-well plate three times with 150 μL/well of D-PBS, add 170 μL/well of blocking solution and incubate 45 min (minimum) at room temperature.
Preparation of bacterial suspension: Mix the two cultures tubes (40 mL) and perform a 1:10 dilution in LB (900 μl LB+100 μl culture. Measure optical density (OD) of the bacterial cultures. OD1 ˜5×10^8 cells/mL. Centrifuge LF82 culture for 20 min at 3500 rpm at room temperature. Re-suspend bacterial pellet in D-PBS and centrifuge again for 20 min at 3500 rpm. Re-suspend bacterial pellet in D-PBS to obtain a bacterial concentration of 2×10^9 bacteria/mL. Dilute 1/10 in D-PBS to obtain a final bacterial concentration of 2×10^8 bacteria/mL (=107 bacteria/50 μL). Perform 1/10 serial dilutions in LB of each bacterial suspension, plate 10 μL of dilutions on LB agar plates (final dilutions of 10^−7) and incubate overnight at 37° C. and count CFUs to determine the actual bacteria density in the assay.
Bacterial binding assay: Add 147 μL 2× binding buffer to compound plate (containing 3 μL of compound). After blocking step is performed (at least 45 min), wash plates three times with 200 μL/well of D-PBS. With a 100 μL multichannel manual pipettor, add 50 μL/well of compound diluted in 2× binding buffer. With a 100 μL multichannel manual pipettor, add 50 μL/well of bacterial suspension. Agitate at slow speed for 1 min and incubate 40-75 min at room temperature. Wash 5 times with 150 μL/well of washing buffer and then once with D-PBS. Add 100 μL/well of 1× Bright-Glo Luciferase substrate. […]

SMILES strings stand for the structures.

On to `OC[C@H]1O[C@H](C#Cc2cc(C#CC3CC3)cc3cn[nH]c23)[C@@H](O)[C@@H](O)[C@@H]1O` [Compound 43, (2R,3S,4R,5S,6R)-2-[2-[5-(2-cyclopropylethynyl)-1H-indazol-7-yl]ethynyl]-6-(hydroxymethyl)tetrahydropyran-3,4,5-triol], for which the IC50 is 2 ± 1 nM. In the case of `CC(C)(C)C#Cc1cc(C#C[C@H]2O[C@H](CO)[C@@H](O)[C@H](O)[C@@H]2O)c2[nH]ncc2c1` [Compound 44, (2R,3S,4R,5S,6R)-2-[2-[5-(3,3-dimethylbut-1-ynyl)-1H-indazol-7-yl]ethynyl]-6-(hydroxymethyl)tetrahydropyran-3,4,5-triol] it was 5 ± 0.5 nM; in that of `OC[C@H]1O[C@H](C#Cc2cc(C#Cc3ccccc3)cc3cn[nH]c23)[C@@H](O)[C@@H](O)[C@@H]1O` [Compound 45, (2R,3S,4R,5S,6R)-2-(hydroxymethyl)-6-[2-[5-(2-phenylethynyl)-1H-indazol-7-yl]ethynyl]tetrahydropyran-3,4,5-triol], 15 ± 3 nM; in that of `OC[C@H]1O[C@H](C#Cc2cc(C#Cc3cccnc3)cc3cn[nH]c23)[C@@H](O)[C@@H](O)[C@@H]1O` [Compound 46, (2R,3S,4R,5S,6R)-2-(hydroxymethyl)-6-[2-[5-[2-(3-pyridyl)ethynyl]-1H-indazol-7-yl]ethynyl]tetrahydropyran-3,4,5-triol], 3 ± 1 nM. With `OC[C@H]1O[C@H](C#Cc2cc(C#Cc3cccc(O)c3)cc3cn[nH]c23)[C@@H](O)[C@@H](O)[C@@H]1O` [Compound 47, (2R,3S,4R,5S,6R)-2-(hydroxymethyl)-6-[2-[5-[2-(3-hydroxyphenyl)ethynyl]-1H-indazol-7-yl]ethynyl]tetrahydropyran-3,4,5-triol], the IC50 was determined as 12 ± 6 nM. Then `OCC#Cc1cc(C#C[C@H]2O[C@H](CO)[C@@H](O)[C@H](O)[C@@H]2O)c2[nH]ncc2c1` [Compound 48, (2R,3S,4R,5S,6R)-2-(hydroxymethyl)-6-[2-[5-(3-hydroxyprop-1-ynyl)-1H-indazol-7-yl]ethynyl]tetrahydropyran-3,4,5-triol], with 9 ± 0.7 nM. In the case of `O=S1(=O)CCN(CC#Cc2cc(C#C[C@H]3O[C@H](CO)[C@@H](O)[C@H](O)[C@@H]3O)c3[nH]ncc3c2)CC1` [Compound 49, (2R,3S,4R,5S,6R)-2-[2-[5-[3-(1,1-dioxo-1,4-thiazinan-4-yl)prop-1-ynyl]-1H-indazol-7-yl]ethynyl]-6-(hydroxymethyl)tetrahydropyran-3,4,5-triol] it was 26 ± 0.5 nM; in that of `NC1(C#Cc2cc(C#C[C@H]3O[C@H](CO)[C@@H](O)[C@H](O)[C@@H]3O)c3[nH]ncc3c2)CCCCC1` [Compound 50], 9 ± 1 nM; in that of `CN(CC#Cc1cc(C#C[C@H]2O[C@H](CO)[C@@H](O)[C@H](O)[C@@H]2O)c2[nH]ncc2c1)Cc1ccccc1` [Compound 51, (2R,3S,4R,5S,6R)-2-[2-[5-[3-[benzyl(methyl)amino]prop-1-ynyl]-1H-indazol-7-yl]ethynyl]-6-(hydroxymethyl)tetrahydropyran-3,4,5-triol], 3 ± 0.4 nM. Take `CC(C)CNCC#Cc1cc(C#C[C@H]2O[C@H](CO)[C@@H](O)[C@H](O)[C@@H]2O)c2[nH]ncc2c1` [Compound 52, (2R,3S,4R,5S,6R)-2-(hydroxymethyl)-6-[2-[5-[3-(isobutylamino)prop-1-ynyl]-1H-indazol-7-yl]ethynyl]tetrahydropyran-3,4,5-triol]: the half-maximal inhibitory concentration (IC50) was determined as 22 ± 10 nM. In the case of `CCN(CC)CC#Cc1cc(C#C[C@H]2O[C@H](CO)[C@@H](O)[C@H](O)[C@@H]2O)c2[nH]ncc2c1` [Compound 53, (2R,3S,4R,5S,6R)-2-[2-[5-[3-(diethylamino)prop-1-ynyl]-1H-indazol-7-yl]ethynyl]-6-(hydroxymethyl)tetrahydropyran-3,4,5-triol] it was 4 ± 0.5 nM; in that of `CCOc1cc(C)c(-c2cc(C#C[C@H]3O[C@H](CO)[C@@H](O)[C@H](O)[C@@H]3O)c3[nH]ncc3c2)cn1` [Compound 54, (2R,3S,4R,5S,6R)-2-[2-[5-(6-ethoxy-4-methyl-3-pyridyl)-1H-indazol-7-yl]ethynyl]-6-(hydroxymethyl)tetrahydropyran-3,4,5-triol], 0.4 ± 0.1 nM; in that of `Cc1cc(OCc2ccccc2)ncc1-c1cc(C#C[C@H]2O[C@H](CO)[C@@H](O)[C@H](O)[C@@H]2O)c2[nH]ncc2c1` [Compound 55, (2R,3S,4R,5S,6R)-2-[2-[5-(6-benzyloxy-4-methyl-3-pyridyl)-1H-indazol-7-yl]ethynyl]-6-(hydroxymethyl)tetrahydropyran-3,4,5-triol], 2 ± 0.05 nM. With `COC(=O)c1cc(C#C[C@H]2O[C@H](CO)[C@@H](O)[C@H](O)[C@@H]2O)c2[nH]ncc2c1` [Compound 57, Methyl 7-[2-[(2R,3S,4R,5S,6R)-3,4,5-trihydroxy-6-(hydroxymethyl)tetrahydropyran-2-yl]ethynyl]-1H-indazole-5-carboxylate], the IC50 stood at 2 ± 0.6 nM. As to `O=C(O)c1cc(C#C[C@H]2O[C@H](CO)[C@@H](O)[C@H](O)[C@@H]2O)c2[nH]ncc2c1` [Compound 58, 7-[2-[(2R,3S,4R,5S,6R)-3,4,5-trihydroxy-6-(hydroxymethyl)tetrahydropyran-2-yl]ethynyl]-1H-indazole-5-carboxylic acid], the IC50 stood at 74 ± 15 nM. With `CN(C)C(=O)c1cc(C#C[C@H]2O[C@H](CO)[C@@H](O)[C@H](O)[C@@H]2O)c2[nH]ncc2c1` [Compound 59, N,N-dimethyl-7-[2-[(2R,3S,4R,5S,6R)-3,4,5-trihydroxy-6-(hydroxymethyl)tetrahydropyran-2-yl]ethynyl]-1H-indazole-5-carboxamide], the IC50 turned out to be 0.4 ± 0.2 nM.

In the case of `CN(C(=O)c1cc(C#C[C@H]2O[C@H](CO)[C@@H](O)[C@H](O)[C@@H]2O)c2[nH]ncc2c1)C1CCCCC1` [Compound 60, N-cyclohexyl-N-methyl-7-[2-[(2R,3S,4R,5S,6R)-3,4,5-trihydroxy-6-(hydroxymethyl)tetrahydropyran-2-yl]ethynyl]-1H-indazole-5-carboxamide], the IC50 came out at 3 ± 2 nM. Then `O=C(c1cc(C#C[C@H]2O[C@H](CO)[C@@H](O)[C@H](O)[C@@H]2O)c2[nH]ncc2c1)N1CCOCC1` [Compound 61, morpholino-[7-[2-[(2R,3S,4R,5S,6R)-3,4,5-trihydroxy-6-(hydroxymethyl)tetrahydropyran-2-yl]ethynyl]-1H-indazol-5-yl]methanone], with 0.6 ± 0.1 nM; and `CNC(=O)c1cc(C#C[C@H]2O[C@H](CO)[C@@H](O)[C@H](O)[C@@H]2O)c2[nH]ncc2c1` [Compound 62, N-methyl-7-[2-[(2R,3S,4R,5S,6R)-3,4,5-trihydroxy-6-(hydroxymethyl)tetrahydropyran-2-yl]ethynyl]-1H-indazole-5-carboxamide], with 34 ± 20 nM; and `O=C(NC1CCCCC1)c1cc(C#C[C@H]2O[C@H](CO)[C@@H](O)[C@H](O)[C@@H]2O)c2[nH]ncc2c1` [Compound 63, N-cyclohexyl-7-[2-[(2R,3S,4R,5S,6R)-3,4,5-trihydroxy-6-(hydroxymethyl)tetrahydropyran-2-yl]ethynyl]-1H-indazole-5-carboxamide], with 26 ± 1 nM.
